Data published in PubChem BioAssay (NCI).
Several values for one entry are separate records, joined by “and”; a condition that tells them apart may be missing. Equal entries are not always repeated.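 Cultured in 96-well plates, cells were exposed to test compound for 48 hours across five concentrations. GI50 marks 50% less growth. TGI marks complete inhibition of growth.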

Each compound was assayed on MDA-MB-468 breast (assay: growth of human tumour cells (NCI), 48 h).
Work on `COC(=O)c1c2c(c(C)[n+]([O-])c1C)C(=O)C=CC2=O` yielded a GI50 of 0.946 µM and a TGI of 2.71 µM. `Cn1cc(C2=C(c3ccc(OC[C@@H](O)CO)cc3)C(=O)NC2=O)c2ccccc21` showed a GI50 of over 25 µM and a TGI of over 25 µM. In the case of `O=[n+]1c(CBr)c(CBr)n([O-])c2ccccc21`, the GI50 is reported as 7.38 µM and the TGI is reported as 20.4 µM. Work on `ClCc1ccccc1CSc1ncnc2nc[nH]c12` yielded a GI50 of 48.9 µM and a TGI of over 60 µM. Work on `N#Cc1c(O)c2c(c(O)c1C#N)C(=O)c1ccccc1C2=O` yielded a GI50 of 1.63 µM and a TGI of 6.17 µM. Work on `O=C1c2ccccc2C(=O)c2c1ccc1[nH]c(CCl)nc21` yielded a GI50 of 1.94 µM and a TGI of 4.29 µM. For `CNC(=O)c1cc(Oc2ccc3c(c2)sc2nc(-c4ccc(N)cc4)cn23)ccn1`, the GI50 was 0.304 µM and the TGI was over 100 µM. Compound `COc1ccc(CNC(=O)COc2ccc(/C=N/Nc3nc4ccccc4s3)cc2)cc1` has a GI50 of 1.9 µM and a TGI of 6.09 µM. Compound `C[C@@H]1Cc2c([nH]c3ccccc23)[C@@H](c2c(F)cc(/C=C/C(=O)O)cc2F)N1CC(C)(C)F` has a GI50 of 16.9 µM and a TGI of 53.5 µM. With `O=C(O)CCCc1ccc(N(CCCl)CCCl)cc1` the GI50 was 23.1 µM and the TGI was 99.2 µM. `COc1cc2c(c(OC)c1OC)-c1ccc(NCc3ccccc3)c(=O)cc1[C@@H](NC(C)=O)CC2` showed a GI50 of 0.319 µM and a TGI of 9.13 µM. In the case of `COc1nc2c(cc1S(=O)(=O)c1ccccc1)CCc1c-2cnn1-c1ccccc1Cl`, the GI50 is reported as 3.7 µM and the TGI is reported as over 100 µM. With `CN=C1NC(=O)/C(=C/c2ccc3ncccc3c2)S1` the GI50 was 3.26 µM and the TGI was 21.6 µM. `C#C[C@]1(O)CC[C@H]2[C@@H]3CC=C4c5sc(-c6cccc(O)c6)nc5CC[C@]4(C)[C@H]3CC[C@@]21C` showed a GI50 of 2.56 µM and a TGI of 6.66 µM. Compound `NS(=O)(=O)c1ccc(-n2nc(-c3ccc(Br)cc3)ccc2=O)cc1` has a GI50 of over 10 µM and a TGI of over 10 µM. For `O=C(NNc1nc2cc(F)c(F)cc2n2cccc12)c1cccnn1`, the GI50 was 0.408 µM and 0.204 µM and the TGI was 1.5 µM and 0.712 µM. In the case of `CC1=C(CCCOC(=O)NCCCl)C2=C(C)C3(CC3)[C@@](C)(O)C(=O)C2=C1`, the GI50 is reported as 1.83 µM and the TGI is reported as 5.08 µM. `CC[n+]1ccc2c(c1)C(=O)c1nccc3c1c-2nc1ccccc13` showed a GI50 of 0.462 µM and a TGI of 1.18 µM. With `COc1ccccc1NC(=O)c1ccc(/C=C/C(=O)c2nccn2C)cc1` the GI50 was 0.383 µM and the TGI was 0.848 µM. `OC(c1cccc(C(F)(F)F)c1)c1cnccc1NC1CCCCCC1` (centres undefined) was tested, and the GI50 was 1.22 µM and the TGI was 2.76 µM. `CCOC(=O)c1cc(-c2ccc([N+](=O)[O-])cc2)n(-c2ccc(C(=O)O)c(O)c2)c1C` gave a GI50 of 2.8 µM and a TGI of 10.7 µM. Work on `COc1ccc(CN2CCCC(C(=O)c3ccc(C(F)(F)F)cc3)C2)c(O)c1` (centres undefined) yielded a GI50 of 15.7 µM and a TGI of 41.6 µM. Work on `CCN1CCN(c2nc(NCCNc3ccnc4cc(Cl)ccc34)c3ccccc3n2)CC1` yielded a GI50 of 0.752 µM and a TGI of 2.34 µM. Work on `Fc1ccc(-c2nn(-c3ccccc3)cc2-c2nc3ccccc3o2)cc1` yielded a GI50 of 0.249 µM and a TGI of 0.877 µM. With `Cc1c(Cl)cccc1Nc1ncccc1C(=O)O` the GI50 was 84.4 µM and the TGI was over 100 µM. `COc1cccc(-c2nn(-c3ccccc3)cc2-c2ccnc(NCCCNS(=O)(=O)c3cccc(F)c3)c2)c1` gave a GI50 of 3.49 µM and a TGI of 30.4 µM. For `CS(=O)c1nccc(-c2c(-c3ccc(F)c(OCCc4ccc(F)cc4)c3)nc3sccn23)n1` (centres undefined), the GI50 was 1.73 µM and the TGI was 3.76 µM. `O=C(Cc1ccc(/C=C/C(=O)c2ncc[nH]2)cc1)Nc1ccc(Cl)cc1` showed a GI50 of 1.68 µM and a TGI of 6.2 µM. `N#Cc1nc(-c2ccc(F)cc2)oc1S(=O)(=O)N1CCOCC1` gave a GI50 of 1.6 µM and a TGI of 3.27 µM. `CN1CCN(Cc2ccc(NC(=O)c3cncc(C#Cc4cnc(N)c5ccccc45)c3)cc2C(F)(F)F)CC1` showed a GI50 of 0.4 µM and a TGI of 0.918 µM. In the case of `Cn1c(-c2nonc2N)nc2cnccc21`, the GI50 is reported as over 25 µM and the TGI is reported as over 25 µM. `CC1=C2[C@@H](CC1)[C@]1(C)O[C@@](C(C)C)(C[C@H]1OC(=O)[C@H](C)O)[C@H]2OC(=O)/C=C/c1ccccc1` was tested, and the GI50 was 12.6 µM and the TGI was 28.3 µM.
